Test results reported in US20230372346A1, “TREATMENT REGIMENS FOR EXON-20 INSERTION MUTANT EGFR CANCERS” (CULLINAN PEARL CORP., priority 2020, published 2023).

What was measured:
[1] = tested on: mutant EGFRs that possess mutations at L792 (L792H, L792F, L792Y) in exon 20 in combination with ex19del+T790M or L858R+T790M; details: cited from earlier work
[2] = tested on: Ba/F3 harboring wild type EGFR; details: cited from earlier work
[3] = tested on: subcutaneously-implanted tumors expressing EGFR with exon 20 insertions; details: cited from earlier work
[4] = biological target: WT EGFR (Homo sapiens, UniProt P00533); details: cited from earlier work
[5] = Phase 1/2a study, safety and adverse events (CTCAE v5); type: in vivo, human
Source text: (§1) This is a Phase 1/2a, open-label, multicenter, first-in-human trial to evaluate the safety and tolerability, PK, PD, and preliminary efficacy of CLN-081 in patients with non-small cell lung cancer (NSCLC) harboring epidermal growth factor receptor (EGFR) exon 20 insertion mutations.
DLTs will be determined based on the incidence and intensity of AEs related to CLN-081 (excluding toxicities clearly related to disease progression or other inter-current illness) as defined below. Dose escalation decisions will be determined based on DLT that occur during the 21 days after initiation of CLN-081 dosing. AEs meeting the definition of a DLT that are observed after 21 days will be made available to the SRC in case a pattern of late toxicity emerges. Toxicity will be graded by the Common Toxicity Criteria for Adverse Events (CTCAE) v5.0. Patients who experience AEs meeting the criteria for DLT should pause treatment with CLN-081 pending management and resolution of the event, and assessment of the relationship of the AE to CLN-081 administration.
Safety and tolerability will be assessed by the incidence and severity of AEs as determined by CTCAE v5.

[6] = tested on: NSCLC cell lines harboring mutant EGFR; details: LXF 2478 and NCI-H1975 EGFR D770_N771insSVD cells; with inhibition of EGFR phosphorylation and induction of caspase 3/7; cited from earlier work
[7] = tested on: mutant EGFRs that possess L718Q mutation in exon 18 in combination with ex19del+T790M or L858R+T790M; details: cited from earlier work
[8] = tested on: EGFR and EGFR mutants that harbor an exon 20 insertion mutation; details: EGFR and exon 20 insertion mutants; cited from earlier work
[9] = tested on: phosphorylation of EGFR and its downstream effectors; details: cited from earlier work
[10] = tested on: mutant EGFRs that possess mutations in exon 18 or exon 21; details: cited from earlier work
[11] = tested on: NSCLC harboring EGFR exon 20 insertion mutations; experiment: Phase 1/2a study, antitumor activity (RECIST v1.1); type: in vivo, human
Method: as §1
The antitumor activity of study treatment will be assessed according to RECIST v1.1 guideline
As part of this phase 1/2 study, dose levels including 30, 45, 65, 100 and 150 mg BID were explored during the escalation phases. Efficacy expansions were initiated at 30, 65 and 100 mg BID. A Phase 2a expansion was initiated at 100 mg BID after meeting protocol specified safety and efficacy criteria. Tumor assessments were performed at baseline, after 6 weeks of CLN-081 administration and every 9 weeks thereafter.

[12] = tested on: Ba/F3 cell lines harboring EGFR with mutations in exon 18 or exon 21; details: cited from earlier work
[13] = baseline ex19del+T790M or L858R+T790M
[14] = 44/45 patients, all dose levels
[15] = G719A, G719S, G719C, E709K, E709A, L861Q

WT EGFR, sequence (P00533 25-1210): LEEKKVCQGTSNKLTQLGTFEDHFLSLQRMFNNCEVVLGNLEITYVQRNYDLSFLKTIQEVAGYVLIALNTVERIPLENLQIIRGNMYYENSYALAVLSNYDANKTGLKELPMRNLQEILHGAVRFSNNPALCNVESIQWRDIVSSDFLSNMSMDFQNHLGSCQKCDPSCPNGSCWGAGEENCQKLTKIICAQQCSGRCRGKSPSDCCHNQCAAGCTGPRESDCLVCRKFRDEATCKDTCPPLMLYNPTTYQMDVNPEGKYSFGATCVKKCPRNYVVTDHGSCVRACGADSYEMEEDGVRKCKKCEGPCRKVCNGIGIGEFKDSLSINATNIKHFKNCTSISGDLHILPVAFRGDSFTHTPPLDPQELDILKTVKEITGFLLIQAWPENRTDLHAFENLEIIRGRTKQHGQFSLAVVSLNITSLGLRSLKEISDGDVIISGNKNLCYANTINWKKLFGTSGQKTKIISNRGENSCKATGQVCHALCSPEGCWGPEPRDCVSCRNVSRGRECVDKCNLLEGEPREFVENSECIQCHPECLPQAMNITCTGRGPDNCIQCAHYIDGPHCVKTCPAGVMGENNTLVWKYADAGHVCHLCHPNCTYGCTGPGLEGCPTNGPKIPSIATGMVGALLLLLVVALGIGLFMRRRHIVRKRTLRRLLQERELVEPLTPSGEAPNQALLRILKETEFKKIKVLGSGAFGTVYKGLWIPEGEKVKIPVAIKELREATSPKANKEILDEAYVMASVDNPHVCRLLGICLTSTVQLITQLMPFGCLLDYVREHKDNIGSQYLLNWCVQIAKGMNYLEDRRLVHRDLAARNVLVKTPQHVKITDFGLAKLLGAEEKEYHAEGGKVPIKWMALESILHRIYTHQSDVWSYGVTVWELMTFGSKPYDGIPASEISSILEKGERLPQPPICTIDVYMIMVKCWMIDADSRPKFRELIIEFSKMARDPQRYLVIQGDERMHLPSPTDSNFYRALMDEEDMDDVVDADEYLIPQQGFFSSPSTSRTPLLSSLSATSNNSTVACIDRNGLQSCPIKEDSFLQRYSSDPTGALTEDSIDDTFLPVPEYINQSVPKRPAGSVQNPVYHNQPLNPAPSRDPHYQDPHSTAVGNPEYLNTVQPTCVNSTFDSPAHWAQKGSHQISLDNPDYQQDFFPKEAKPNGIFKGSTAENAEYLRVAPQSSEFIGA

C=CC(=O)N[C@H]1C=C(C)c2c(-c3cnc4ccccc4c3)c3c(N)ncnc3n2C1 [Compound 1, (S)—N-(4-amino-6-methyl-5-(quinolin-3-yl)-8,9-dihydropyrimido[5,4-b]indolizin-8-yl)acrylamide]
potency in inhibiting the phosphorylation of mutant EGFRs ([1]; L792H, L792F, L792Y each with ex19del+T790M or L858R+T790M): intensive cellular potency | absolute activity and selectivity over baseline mutations compared with osimertinib, erlotinib and Afatinib [1, 13]: higher | IC50 [2]: 597 nM | antitumor efficacy ([3]; V769_D770insASV, D770_N771insSVD, H773_V774insNPH, dose-dependent): striking tumor growth inhibition and tumor regression effects | antitumor efficacy of twice-daily versus once-daily administration ([3]; nude mice transplanted with NCI-H1975 EGFR D770_N771insSVD): not inferior | inhibition against WT EGFR [4]: moderate inhibition | patients with treatment-related discontinuations ([5]; 4 patients): 9% | patients requiring dose reductions ([5]; 5 patients): 11% | patients who experienced Gr ≥3 TRAEs ([5]; 8/45 patients, all dose levels): 18% | patients who experienced grade ≥3 AEs ([5]; 20/45 patients, all dose levels): 44% | patients who experienced a treatment related adverse event (TRAE), irrespective of grade [5, 14]: 98% | patients who experienced an adverse event (AE), irrespective of grade or attribution [5, 14]: 98% | patients with dose limiting toxicity (DLT) ([5]; Gr 3 diarrhea at 150 mg BID, the highest dose cohort, listed as CLN-081): One and one | Grade ≥3 TRAEs in all patients: Anemia, % ([5]; N = 45): 9% | Grade ≥3 TRAEs in all patients: Diarrhea, % ([5]; N = 45): 2% | Grade ≥3 TRAEs in all patients: Increased ALT, % ([5]; N = 45): 4% | Grade ≥3 TRAEs in all patients: Increased AST, % ([5]; N = 45): 4% | Grade ≥3 TRAEs in all patients: Increased Amylase, % ([5]; N = 45): 2% | Grade ≥3 TRAEs in all patients: Neutropenia, % ([5]; N = 45): 2% | Grade ≥3 TRAEs in all patients: Stomatitis, % ([5]; N = 45): 2% | patients with Gr ≥3 treatment-related rash ([5]; all dose levels): no patients | patients with treatment-related Gr 3 diarrhea ([5]; all dose levels): one | TRAEs in ≥15% of patients: Anemia, % ([5]; any grade, N = 45): (18) % | TRAEs in ≥15% of patients: Diarrhea, % ([5]; any grade, N = 45): (22) % | TRAEs in ≥15% of patients: Dry Skin, % ([5]; any grade, N = 45): (16) % | TRAEs in ≥15% of patients: Increased AST, % ([5]; any grade, N = 45): (16) % | TRAEs in ≥15% of patients: Nausea, % ([5]; any grade, N = 45): (18) % | TRAEs in ≥15% of patients: Paronychia, % ([5]; any grade, N = 45): (22) % | TRAEs in ≥15% of patients: Rash, % ([5]; any grade, N = 45): (76) % | TRAEs in ≥15% of patients: Stomatitis, % ([5]; any grade, N = 45): (18) % | diarrhea compared to historical experience with other EGFR inhibitors ([5]; in vivo): reduced frequency and severity of diarrhea | most common AEs, regardless of attribution or grade ([5]; in vivo): rash, anemia and diarrhea | safety profile ([5]; in vivo): acceptable safety profile | safety profile at efficacious dose levels compared to other TKIs targeting EGFR exon 20 insertion mutations ([5]; in vivo): superior safety profile | patients who discontinued due to treatment-related Gr 2 pneumonitis ([5]; patient had also experienced pneumonitis on osimertinib): one | growth of NSCLC cells with EGFR exon 20 insertions [6]: suppressed the growth | potency in inhibiting the phosphorylation of mutant EGFRs ([7]; L718Q+ex19del+T790M or L718Q+L858R+T790M): intensive cellular potency | absolute activity and selectivity over baseline mutations compared with osimertinib, erlotinib and Afatinib [7, 13]: higher | inhibition of in vitro phosphorylation activity of EGFR and EGFR mutants [8]: inhibited | in vivo inhibitory effect on the phosphorylation of EGFR and its downstream effectors ([9]; human lung cancer xenografts harboring EGFR exon 20 insertions): potent and durable in vivo inhibitory effect | effect on skin tissue with WT EGFR ([9]; in vivo): spares skin tissue with WT EGFR | inhibition against EGFRs harboring T790M and either exon 18 or exon 21 mutations ([10]; G719A+T790M, L861Q+T790M): intensive inhibition | activity compared with erlotinib and osimertinib [10, 15]: higher | potency in inhibiting the phosphorylation of mutant EGFRs [10, 15]: intensive cellular potency | Best response PR, % ([11]; 30 mg BID (n = 8)): 38% | Best response SD, % ([11]; 30 mg BID (n = 8)): 62% | Confirmed response, % ([11]; 30 mg BID (n = 8)): 38% | Disease Control Rate (PR + SD ≥ 6 mo), % ([11]; 30 mg BID (n = 8)): 62% | Best response SD, % ([11]; 45 mg BID (n = 1)): 100% | Best response PD, % ([11]; 65 mg BID (n = 14)): (7) % | Best response PR, % ([11]; 65 mg BID (n = 14)): (50) % | Best response SD, % ([11]; 65 mg BID (n = 14)): (43) % | Confirmed response, % ([11]; 65 mg BID (n = 14)): (14) % | Disease Control Rate (PR + SD ≥ 6 mo), % ([11]; 65 mg BID (n = 14)): (57) % | Pending confirmation, % ([11]; 65 mg BID (n = 14)): (21) % | Unconfirmed response, % ([11]; 65 mg BID (n = 14)): (14) % | Best response PR, % ([11]; 100 mg BID (n = 13)): (54) % | Best response SD, % ([11]; 100 mg BID (n = 13)): (46) % | Confirmed response, % ([11]; 100 mg BID (n = 13)): (46) % | Disease Control Rate (PR + SD ≥ 6 mo), % ([11]; 100 mg BID (n = 13)): (69) % | Unconfirmed response, % ([11]; 100 mg BID (n = 13)): (8) % | evaluable patients who achieved a PR ([11]; 100 mg BID, 7/13, 6 confirmed and 1 unconfirmed): 54% | Best response PR, % ([11]; 150 mg BID (n = 6)): 67% | Best response SD, % ([11]; 150 mg BID (n = 6)): 33% | Confirmed response, % ([11]; 150 mg BID (n = 6)): 33% | Disease Control Rate (PR + SD ≥ 6 mo), % ([11]; 150 mg BID (n = 6)): 83% | Pending confirmation, % ([11]; 150 mg BID (n = 6)): 33% | objective responses (all partial responses) ([11]; 21 of 42 evaluable patients across dose levels): 50% | response-evaluable patients who remained on treatment at the data cut-off ([11]; 22/42 across dose levels): 52% | Disease control (PR or SD ≥6 months) ([11]; 27/42 across all doses): 64% | patients with stable disease (SD) or PR as the best response ([11]; 41/42 across dose levels): 98% | patients with disease progression as the best response ([11]; across dose levels): one | antitumor activity ([11]; heavily-pretreated patients, across EGFR Ins 20 variants and dose levels): encouraging antitumor activity | dose cohorts in which partial responses were registered ([11]; in vivo): all dose cohorts tested so far | lowest dose cohort at which partial response was reported ([11]; in vivo): 30 mg BID | unconfirmed objective responses, patients ([11]; of 21 responders, including 5 pending a confirmatory scan): 8 | confirmed objective responses, patients ([11]; of the 21 patients achieving an objective response): 13 | response in patients previously treated with poziotinib and TAK788 (mobocertinib) ([11]; some patients): partial responses | selectivity index compared to osimertinib ([12]; T790M in addition to either G719A or L861Q): higher | selectivity index (ratio between IC50 for WT EGFR and mutant EGFR cell lines) compared to erlotinib and afatinib [12]: much higher
